From US9487818B2, “TOP2A inhibition by temozolomide and its predictive value of GBM patients survival” (COUNCIL OF SCIENTIFIC & INDUSTRIAL RESEARCH, priority 2010, dated 2016)

Legend:
U251 glioma cells = experiment: Cell viability (MTT) assay in U251 cells transfected with TOP2A or cyclophilin siRNA; assay type: cell-based; details: MTT assay after 48 hrs
Method: At test for difference in the % viability of the control and TOP2A siRNA treated cells was estimated and the p values are shown: 2, 4, 8 and 16 μg/mL; p=0.0297, 0.0336, <0.0001 and 0.042 respectively.
The experiment was carried out as in “D” but the cells were treated with temozolomide. At test for difference in the % viability of the control and TOP2A siRNA treated cells was estimated and the p values are shown: 250, 500, 1000 and 2000 μM; p=0.0668, 0.0097, 0.0687 and 0.0134 respectively.
U373, U138, LN18, LN229, U343, U87, K562, U251 and SVG cells were cultured in DMEM respectively with 10% Fetal bovine serum, penicillin and streptomycin at 37° C. in a humidified atmosphere with 5% CO2. The human TOP2A and cyclophilin siRNA duplexes were designed and chemically synthesized by Dharmacon Research (Lafayette, Colo.). The SMARTpool siRNA is a mixture of four different siRNA duplexes targeting distinct coding region sequences of TOP2A (Genbank™ accession number NM_001067). […]
For chemosensitivity assays, 24 hours after plating, the cells were treated with the cytotoxic drugs and incubated at 37° C., 5% CO2 for 45 hours. […] Three hours after MTT addition, the formazan crystals were dissolved in DMSO (200 μl) and measured as absorbance at 550 nm. The absorbance by the control cells was considered to be 100% and all samples were normalized to the control cells. […]

GBM patients = experiment: Prospective cohort of GBM patients, survival (Kaplan Meier analysis); assay type: in vivo, human; details: for median survival: radiotherapy with temozolomide
Method: Kaplan-Meier survival estimates for 102 GBM patients are calculated for TOP2A transcript levels. Survival curves for the groups positive (log 2 ratio≧9.25; n=34) and negative (log 2 ratio<9.25; n=68) for TOP2A in univariate analysis.
Newly diagnosed glioblastoma patients (n=102) who underwent surgery in the two clinical centers (NIMHANS/SSIHMS) were prospectively included. Approval by the ethics committee and patient consent were obtained prior to initiation of the study. The patients were recruited based on the following inclusion criteria: 1) Adult patients (age between 18 to 65 years) with a supratentorial lobar tumor 2) Patients who underwent maximal safe resection of the tumor with minimal residue noted on post operative MRI scan 3) Patients with post operative Karnofsky's Performance Score (KPS)≧70.
All patients underwent maximal safe resection of the tumor. All patients underwent uniform adjuvant therapy consisting of radiotherapy, administered with a total dose of 59.4 Gy, given in 33 fractions, along with concomitant chemotherapy with temozolamide, administered at the dose of 100 mg/day which was continued daily for 45 days. Subsequently, five cycles of cyclical chemotherapy with temozolamide at the dose of 150 mg/sq. m body surface area for 5 days every 28 days was administered. The patients were followed up clinically and with MR imaging. The maximum follow up period was 34 months.
A cohort of 102 patients of GBM were prospectively recruited and managed by standard treatment protocol (as explained in methods). […] In this cohort, as expected, age was an important predictor of poor outcome as noted by Cox regression analysis (p=0.037; HR=1.023; B=0.022). […] The effect of TOP2A transcript level and age on survival was further evaluated by Cox proportional hazard model to elicit the independent effect of TOP2A on survival. It was noted that both age (p=0.033; HR=1.023; B=0.023) and TOP2A transcript level (p=0.035; HR=0.888; B=−0.119) were significant predictors by multivariate analysis. […]

Row | Structure (SMILES) | sensitivity of TOP2A siRNA transfected cells in comparison to cyclophilin siRNA transfected cells (U251 glioma cells) | median overall survival (GBM patients; 102 GBM patients, resection, radiotherapy with concomitant and cyclical adjuvant temozolomide) [months] | median survival (GBM patients; patients with TOP2A mRNA levels <9.25 log 2 ratio) [months] | median survival (GBM patients; patients with TOP2A mRNA levels ≧9.25 log 2 ratio) [months]
1 | COc1cc([C@@H]2c3cc4c(cc3[C@@H](O[C@@H]3O[C@@H]5CO[C@@H](C)O[C@H]5[C@H](O)[C@H]3O)[C@H]3COC(=O)[C@H]23)OCO4)cc(OC)c1O [etoposide] | less efficiently |  |  | 
2 | Cn1nnc2c(C(N)=O)ncn2c1=O [temozolomide] |  | 16 | 13 | 22
